The text below walks through data of patent publication US20240392254A1, “CANCER MICROENVIRONMENT” (CARCINOTECH LTD, priority 2021, published 2024).

Read-outs that look alike come from different tables or passages of the source.

The subject of data set [1] is 3D GBM tumorspheres (spheroids) from coculture of U-87 MG, GBM CSC, GBM CAF and microglia (HMC3). Nature of the data set: Cisplatin dose-response in 3D GBM tumorspheres, CellTiter-Glo viability. The data set is classed as cell-based. As to the method:
(§1) Cell cultures were exposed to the indicated cisplatin concentrations for 72 h. Cell viability was then assessed using the luminescence-based CellTiter-Glo Assay. Data are presented as means±SEM (n≥2). For 2D cell cultures and 3D tumorspheres FIGS. 7A and 7B) dose-response curves were fitted (nonlinear regression) to calculate the IC50 values (see: Table 1 in the examples section). In the 3D bioprint experiment (FIG. 7B) statistically significant difference between untreated control and cisplatin treatment was determined using an unpaired t-test (**** p≤0.0001).
In the next step, response to cisplatin was tested in 3D GBM spheroids (see FIG. 7B). […] Nevertheless, cisplatin was effective in 3D GBM tumourspheres (spheroids) as well.
For orientation: In ATP-based viability assays light output follows the ATP content of the culture.

The test system of data set [2] is 3D GBM bioprints (example B21_012). Nature of the data set: Cisplatin treatment of 3D GBM bioprinted constructs, CellTiter-Glo viability. The format is cell-based, human. As to the method: as §1
Bioprinted constructs were treated with 50, 100, 200, or 400 μM cisplatin (CDDP) for 72 h. Viability was assessed using CellTiter-Glo assay.
Tumorspheres, obtained from a coculture of U87MG (60%), microglia HMC3 (28%), GBM-CAF (10%) and GBM-CSC (2%) after 14 days in 5×96-well round bottom low adhesion plates, were harvested by sedimenting in Falcon tube then transferred into a 1 ml syringe. The culture medium was eliminated by gravitation. The total volume of tumorsphere pellet was 50 μL. 270 μL of bioink Cellink Laminink 411 were transferred into another 1 ml syringe; a connector was used to link both syringes. Mixing the bioink and tumorspheres was done by pushes from one side to another. The homogenous mixture tumorspheres-bioink (˜320 μL) was transferred in 3 ml syringe preloaded with 1 mL start ink. […]

Data set [3] concerns glioblastoma cancer stem cells (GBM CSC). Nature of the data set: Cisplatin dose-response in 2D culture, CellTiter-Glo viability. The data set is classed as cell-based. As to the method: as §1
(§2) Both cell lines were deemed sensitive to cisplatin, however, higher drug doses were required to initiate death of cancer stem cells.

Data set [4] deals with U-87 MG glioblastoma cell line. The description is as above. The data set is classed as cell-based. The procedure:
as §1, §2

Data set [5] deals with MDA-MB-231 triple negative breast cancer cells. Nature of the data set: Doxorubicin dose-response in 2D cell culture. The following applies: for cell viability (in comparison to an untreated control sample): 2D cell culture.
Procedure: The MDA-MB-231 cells were cultured in Leibovitz's L-15 Medium (ATCC®) and fetal bovine serum was added to a final concentration of 10%, and in accordance with the general procedure outlined in MDA-MB-231 (HTB-26™) Product sheet from ATCC® (https://www.atcc.org/products/htb-26).
Cells were exposed to a range of doxorubicin concentrations for 72 hours and sensitivity to this drug was evaluated by determining a concentration that kills 50% of the cells (IC50).
The test system of data set [6] is bioprinted construct BB21-001 (MDA-MB-231, hMAds, CAF, BCSC). Nature of the data set: Doxorubicin treatment of single-cell bioprinted breast cancer construct, RealTime-Glo MT viability. The format is cell-based, human. The procedure:
The 15-day old bioprinted constructs were treated with 0.2 and 1 μM Doxorubicin (Doxo) for 72 h. Cell viability was assessed using RealTime-Glo MT before treatment (day 0) and after 72 h of treatment. To assess the doxorubicin effects after 72 h, a percentage of day 0 viability was calculated for each construct. Statistically significant differences were determined using one-way ANOVA with Tukey's post-hoc test, and indicated as follows: *** p≤0.001, **** p≤0.0001, ns—not significant.
Each cell line (MDA-MB-231, hMAds, CAF and BCSC) was harvested, counted and then the required number of cells was transferred into a 15 ml Falcone tube. The cells were spun down then resuspended into 20 μL of complete 3D Tumorsphere Medium XF (obtained from PromCell®) and loaded into a syringe preloaded with 200 μL of Laminink 411 (cells corresponded to 10% of the bioink volume). Then mixed for 550 times. The homogeneous mixture was transferred to a syringe and then set to bioprint (the extrusion volume of each bioprint being set to 3 uL (approximately 50000 cells per droplet).

The subject of data set [7] is bioprinted construct BB21-001. Nature of the data set: LDH release (LDH-Glo) cytotoxicity in bioprinted breast cancer construct. The format is cell-based, human. The following applies: 0.2 and 1 μM doxorubicin, 72 h time-point. As to the method:
The 15-day old bioprinted constructs were treated with 0.2 and 1 μM Doxorubicin (Doxo). Medium samples were collected at 24, 48 and 72 h time points to assess the Lactate Dehydrogenase (LDH) release, which is a marker of cytotoxicity. LDH-Glo assay was used. Data are presented as means±SD, n=3.
Cytotoxicity of doxorubicin was also assessed by LDH release detection.
In general terms: LDH in the medium is a marker of cell lysis.

What is called IC50 is the concentration needed to halve the response being measured. For `N.N.[Cl][Pt][Cl]` [Cisplatin], the effectiveness of cisplatin entry in data set [1] (3D GBM tumourspheres) is “effective”. Further, the IC50 in data set [1] (3D spheroids (tumourspheres)) is 111 µM; in data set [2] (3D Bioprinted tumour, 72 h, read-out: Cisplatin IC50), over 200 µM; in data set [2] (printed construct, read-out: IC50 value) it was over 200 µM; in data set [3] (2D GBM CSC, 72 h, read-out: Cisplatin IC50 (Mean ± SEM)), 20.1 ± 3.5 µM; in data set [4] (2D U-87 MG, 72 h, read-out: Cisplatin IC50 (Mean ± SEM)) it was 12.9 ± 2.5 µM. The sensitivity to cisplatin entry is “sensitive” in data set [3] (2D culture, 72 hours, higher doses required than for U-87 MG) and “sensitive” in data set [4] (2D culture, 72 hours).
As a reminder, the viability is a read-out of living cells in per cent, often relative to untreated cells. Turning to `COc1cccc2c1C(=O)c1c(O)c3c(c(O)c1C2=O)C[C@@](O)(C(=O)CO)C[C@@H]3O[C@H]1C[C@H](N)[C@H](O)[C@H](C)O1` [doxorubicin, Doxorubicin], the “cell viability (in comparison to an untreated control sample)” value was about 40% in data set [5] (0.2 μM doxorubicin) and under 14% in data set [5] (1.0 μM doxorubicin). Besides, in data set [5] (2D culture, 72 hours), half-maximal inhibition (IC50) required 80 ± 20 nM. The “effect on cell viability” value in data set [6] (1.0 μM doxorubicin) is reported as “significantly reduces cell viability”. Also, in data set [6] (Homo sapiens, MDA-MB-231, 0.2 μM doxorubicin, 72 h, 15-day old construct, read-out: cell viability (in comparison to an untreated control sample)), the viability at 0.2 µM was about 84%. Also, the viability at 1 µM in data set [6] (Homo sapiens, MDA-MB-231, 1.0 μM doxorubicin, 72 h, 15-day old construct, read-out: cell viability (in comparison to an untreated control sample)) was about 35%. In data set [7], the “LDH release (cytotoxicity)” value is given as “increasing trend”.
